These results are taken from the Biogen ADME set (Fang et al. 2023).

For the series the following is noted: for aqueous solubility: pH 6.8.

≈ marks a conversion by molar mass, not a printed value.

Broadly, the aqueous solubility is the dissolved amount per volume that the medium holds. As to `CON(C)C(=O)CCc1c(C)nn(C)c1C`, the MDR1-MDCK efflux ratio stood at 1.33; the intrinsic clearance, human liver microsomes is ≤ 4.74 mL/min/kg; the intrinsic clearance, rat liver microsomes is 28.3 mL/min/kg; the aqueous solubility was 34.2 µg/mL (≈ 152 µM).
`O=C(NC1CCCC1)C1=CCN(C(=O)C2CC2)C1`: the MDR1-MDCK efflux ratio was determined as 5.2; the intrinsic clearance, human liver microsomes is ≤ 4.74 mL/min/kg; the intrinsic clearance, rat liver microsomes was found to be 37.3 mL/min/kg.
On to `Cc1noc(C)c1CS(=O)(=O)Cc1cccc2c1OCCO2`, for which the MDR1-MDCK efflux ratio was 2.46; the intrinsic clearance, human liver microsomes came out at 39.8 mL/min/kg; the intrinsic clearance, rat liver microsomes worked out at 2290 mL/min/kg; the aqueous solubility was 53.3 µg/mL (≈ 165 µM).
`O=C(c1nccc2ccccc12)N1CCC(COc2ccccn2)CC1`: the intrinsic clearance, human liver microsomes stood at 42.1 mL/min/kg and the intrinsic clearance, rat liver microsomes was 5410 mL/min/kg.
`Cc1nonc1C(=O)NCCc1c[nH]c2cccc(C3(O)CCOCC3)c12` returned an aqueous solubility of 61.2 µg/mL (≈ 165 µM).
On to `Cc1cnn(CCNC(=O)C2(Cn3cccn3)CC2)c1`, for which the MDR1-MDCK efflux ratio was determined as 6.11; the intrinsic clearance, human liver microsomes turned out to be 10.2 mL/min/kg; the intrinsic clearance, rat liver microsomes stood at 108 mL/min/kg.
As to `Cc1nc2cc(C(=O)N3CCc4nc5ccccc5c(=O)n4CC3)ccc2n1C`, the intrinsic clearance, human liver microsomes was ≤ 4.74 mL/min/kg; the intrinsic clearance, rat liver microsomes was 24.7 mL/min/kg; the aqueous solubility amounted to 67.3 µg/mL (≈ 174 µM).
Turning to `CCOc1c2c(c(OCC)c3ccccc13)C(=O)N(c1ccc(CC(=O)NS(=O)(=O)c3ccccc3)cc1)C2`, the MDR1-MDCK efflux ratio came out at 2.9; the intrinsic clearance, human liver microsomes was ≤ 4.74 mL/min/kg; the intrinsic clearance, rat liver microsomes came out at 17.3 mL/min/kg.
Regarding `Fc1cccc(OC2CCN(Cc3nc4ccccc4[nH]3)CC2)c1`, the MDR1-MDCK efflux ratio came out at 0.816; the intrinsic clearance, human liver microsomes came out at 93.3 mL/min/kg; the intrinsic clearance, rat liver microsomes is 1960 mL/min/kg; the aqueous solubility amounted to 54.9 µg/mL (≈ 169 µM).
For `FC(F)(F)c1nc(Nc2ccc(-n3cnnn3)cc2)c2ccccc2n1`, in that order: 1.13, ≤ 4.74 mL/min/kg, ≤ 10.7 mL/min/kg and 1.15 µg/mL (≈ 3.22 µM).
Turning to `COc1ccc(CC(=O)Nc2ccc(F)nc2)cc1`, the MDR1-MDCK efflux ratio worked out at 0.624; the intrinsic clearance, human liver microsomes is 16.5 mL/min/kg; the intrinsic clearance, rat liver microsomes worked out at 76.5 mL/min/kg.
On the same counts, the results for `Cc1cccc(C)c1OCC(=O)N(C)[C@@H]1CCC[C@@H](O)[C@@H]1O` are 11.2, 9.69 mL/min/kg and 155 mL/min/kg.
For `CC(C)Cc1ccccc1CNCc1ccc2[nH]cnc2c1`, in that order: 7.25, 55.8 mL/min/kg and 765 mL/min/kg.
For `CC(C)CCCNC(=O)c1[nH]ncc1Br`, in that order: 0.579, 16.5 mL/min/kg and 742 mL/min/kg.
In the case of `Cc1noc2ncc(-c3nnc(CC(C)(C)C)o3)cc12`, the aqueous solubility worked out at 37.7 µg/mL (≈ 138 µM).
On to `Cc1nn(Cc2csc(-c3cccs3)n2)c(N)c1C#N`, for which the MDR1-MDCK efflux ratio came out at 0.689; the intrinsic clearance, human liver microsomes turned out to be 19.2 mL/min/kg; the intrinsic clearance, rat liver microsomes is 388 mL/min/kg; the aqueous solubility amounted to 39.6 µg/mL (≈ 131 µM).
Take `Nc1ccccc1-c1nc(C2CC2)no1`: the intrinsic clearance, human liver microsomes turned out to be 322 mL/min/kg and the intrinsic clearance, rat liver microsomes amounted to 754 mL/min/kg.
For the compound `c1ccc(-c2n[nH]c(C3CCN(c4ccccn4)CC3)n2)cc1`, the MDR1-MDCK efflux ratio was 0.974; the intrinsic clearance, human liver microsomes was 15.8 mL/min/kg; the intrinsic clearance, rat liver microsomes is 440 mL/min/kg; the aqueous solubility was determined as 34.4 µg/mL (≈ 113 µM).
For `CC(C)c1noc(-c2ccc(N(C)Cc3cccnc3)nc2)n1`, in that order: 0.511, 45.6 mL/min/kg, 459 mL/min/kg and 36.6 µg/mL (≈ 118 µM).
As to `COCC(=O)Nc1cc(C#N)cn1C(C)(C)C`, the MDR1-MDCK efflux ratio was found to be 1.29; the intrinsic clearance, human liver microsomes was ≤ 4.74 mL/min/kg; the intrinsic clearance, rat liver microsomes was found to be 15.3 mL/min/kg.
Regarding `Fc1ccc(CN2CCCN(c3ccc4nnnn4n3)CC2)cc1`, the MDR1-MDCK efflux ratio was determined as 0.606; the intrinsic clearance, human liver microsomes came to 31.9 mL/min/kg; the intrinsic clearance, rat liver microsomes stood at 620 mL/min/kg.
For the compound `Cc1ccnc(NC(=O)CN2CCCC2=O)c1`, the MDR1-MDCK efflux ratio stood at 2.12; the intrinsic clearance, human liver microsomes is ≤ 4.74 mL/min/kg; the intrinsic clearance, rat liver microsomes was ≤ 10.7 mL/min/kg; the aqueous solubility came out at 55.1 µg/mL (≈ 236 µM).
As to `COc1ccc(Nc2ncnc3sccc23)c(OC)c1`, the MDR1-MDCK efflux ratio is 0.572; the intrinsic clearance, human liver microsomes stood at 89.3 mL/min/kg; the intrinsic clearance, rat liver microsomes stood at 605 mL/min/kg; the aqueous solubility stood at 40.1 µg/mL (≈ 140 µM).
Regarding `O=C(c1ccc(Cl)cc1)N1CCC[C@@H](C(=O)N2CCc3ccccc3C2)C1`, the MDR1-MDCK efflux ratio was found to be 2.44; the intrinsic clearance, human liver microsomes turned out to be 360 mL/min/kg; the intrinsic clearance, rat liver microsomes turned out to be 2530 mL/min/kg.
On the same counts, the results for `CC(=O)N(C)[C@H]1CC2(CCN(C(=O)COc3cc(C)c(Cl)c(C)c3)CC2)OC[C@]1(C)O` are 8.59, 78.1 mL/min/kg and 442 mL/min/kg.
For `O=C(NC1CCNCC1)c1ccc2[nH]ncc2c1`, the MDR1-MDCK efflux ratio turned out to be 0.239; the fraction unbound, human plasma was found to be 0.696; the fraction unbound, rat plasma came to 0.845; the intrinsic clearance, human liver microsomes is 25.9 mL/min/kg.
The compound `CC(C)CC(=O)Nc1ccc(Cl)c(C#N)c1` gave an aqueous solubility of 24.1 µg/mL (≈ 102 µM).
On to `Cc1cc(-c2nnc3ccc4ccccc4n23)n(C)n1`, for which the MDR1-MDCK efflux ratio was 1.26; the intrinsic clearance, human liver microsomes is ≤ 4.74 mL/min/kg; the intrinsic clearance, rat liver microsomes came to 20.3 mL/min/kg; the aqueous solubility was 17.1 µg/mL (≈ 64.9 µM).
As to `Cc1cccc(NC(=O)c2cccc3ncccc23)c1`, the MDR1-MDCK efflux ratio amounted to 0.471; the intrinsic clearance, human liver microsomes was found to be 22.2 mL/min/kg; the intrinsic clearance, rat liver microsomes stood at 155 mL/min/kg; the aqueous solubility came out at 4.85 µg/mL (≈ 18.5 µM).
`Cn1cnnc1CNc1ccccc1C#N`: the MDR1-MDCK efflux ratio was found to be 4.56; the intrinsic clearance, human liver microsomes was ≤ 4.74 mL/min/kg; the intrinsic clearance, rat liver microsomes was ≤ 10.7 mL/min/kg; the aqueous solubility stood at 33.6 µg/mL (≈ 158 µM).
For `O=c1c2sccc2nc2n1CCN(Cc1cc(F)ccc1F)CC2`, the MDR1-MDCK efflux ratio worked out at 0.463; the intrinsic clearance, human liver microsomes is 121 mL/min/kg; the intrinsic clearance, rat liver microsomes came to 2180 mL/min/kg.
For `CCCn1ncc(CN2CCC(c3cc4cccnc4[nH]3)CC2)c1C`, in that order: 8.86, 41.8 mL/min/kg and 201 mL/min/kg.
For the compound `Cc1cn[nH]c1C1(C)CCN(Cc2cnn(C)c2)CC1`, the MDR1-MDCK efflux ratio stood at 22.6; the intrinsic clearance, human liver microsomes was ≤ 4.74 mL/min/kg; the intrinsic clearance, rat liver microsomes was 79.1 mL/min/kg; the aqueous solubility was found to be 28.4 µg/mL (≈ 104 µM).
For `CNC(=O)c1cc(C2CCN(C)CC2)ncn1`, in that order: 0.605, ≤ 4.74 mL/min/kg, ≤ 10.7 mL/min/kg and 32.5 µg/mL (≈ 139 µM).
On the same counts, the results for `COc1ccc(-c2nc3cc(C)ccc3cc2CN(C)Cc2nccn2C)cc1` are 4.84, 296 mL/min/kg, 2500 mL/min/kg and 18 µg/mL (≈ 46.6 µM).
For `Cn1nccc1CC1CCN(C2CCCC2)CC1`, in that order: 0.94, ≤ 4.74 mL/min/kg, 258 mL/min/kg and 26.2 µg/mL (≈ 106 µM).
On to `CC(C)(C)c1cc(NC(=O)Nc2ccc(-c3cn4c(n3)sc3cc(OCCN5CCOCC5)ccc34)cc2)no1`, for which the aqueous solubility is 0.3 µg/mL (≈ 0.535 µM).
Regarding `Cc1cccc(NC(=O)CN(C)c2ncccc2F)n1`, the MDR1-MDCK efflux ratio came out at 0.657; the intrinsic clearance, human liver microsomes stood at 16.2 mL/min/kg; the intrinsic clearance, rat liver microsomes was found to be 404 mL/min/kg; the aqueous solubility was 36.8 µg/mL (≈ 134 µM).
Turning to `COc1cc2nn(CCC(C)(C)O)cc2cc1NC(=O)c1ccn(C(F)F)n1`, the MDR1-MDCK efflux ratio turned out to be 10.2; the intrinsic clearance, human liver microsomes came out at 18.7 mL/min/kg; the intrinsic clearance, rat liver microsomes is ≤ 10.7 mL/min/kg.
For `NCCn1cc(NC(=O)c2ccccc2)cn1`, the intrinsic clearance, human liver microsomes is ≤ 4.74 mL/min/kg; the intrinsic clearance, rat liver microsomes was ≤ 10.7 mL/min/kg; the aqueous solubility amounted to 79.1 µg/mL (≈ 343 µM).
As to `COc1ccc2c(c1)C=C(CN1CCC(c3cc(-c4ccc(N)nc4)cc(C)n3)CC1)CO2`, the MDR1-MDCK efflux ratio was 0.999; the intrinsic clearance, human liver microsomes worked out at 43.4 mL/min/kg; the intrinsic clearance, rat liver microsomes stood at 169 mL/min/kg; the aqueous solubility is 22.9 µg/mL (≈ 51.8 µM).
For `Cc1ccc(CN2CC[C@H](c3nnc(-c4ccccc4F)o3)C2)o1`, in that order: 0.493, 27.7 mL/min/kg, 790 mL/min/kg and 45.4 µg/mL (≈ 139 µM).
Regarding `CN(CC(N)=O)Cc1cc2c(cc1Br)OCO2`, the MDR1-MDCK efflux ratio was 0.761; the intrinsic clearance, human liver microsomes amounted to 10.4 mL/min/kg; the intrinsic clearance, rat liver microsomes is 324 mL/min/kg; the aqueous solubility was 69.7 µg/mL (≈ 231 µM).
For `CC(C)c1nnc(CNC(=O)C2(C)CCC2)n1C`, in that order: 45.4, ≤ 4.74 mL/min/kg, ≤ 10.7 mL/min/kg and 51.8 µg/mL (≈ 207 µM).
For `Cc1ccccc1-c1nc(Cn2ccnc2C(C)C)c(C)o1`, in that order: 0.732, 310 mL/min/kg, 2720 mL/min/kg and 49 µg/mL (≈ 166 µM).
In turn, `CCOc1cccc(C(=O)Nc2ccc3c(c2)CCC(=O)N3C)c1` came in with an intrinsic clearance, human liver microsomes of 12.2 mL/min/kg; an intrinsic clearance, rat liver microsomes of 53.6 mL/min/kg; an aqueous solubility of 9.14 µg/mL (≈ 28.2 µM).
On to `N#Cc1ccc2nc(NCCn3ccnc3)ccc2c1`, for which the MDR1-MDCK efflux ratio was 4.78; the intrinsic clearance, human liver microsomes worked out at 6.36 mL/min/kg; the intrinsic clearance, rat liver microsomes was determined as 54.5 mL/min/kg.
